The numbers were not newly measured in paper PMC5689474 (Amino acids, 2010), which cites them from elsewhere.

Usually IC50 stands for the midpoint of a concentration-inhibition curve.

Data set [1] has as its system δ- and μ-opioid receptors. Particulars: words; ref Lipkowski et al. 1987; Horan et al. 1993.
The target of a further data set is rat μ-opioid receptor (Rattus norvegicus, UniProt P33535). The conditions noted are these: read-out: Binding Kiμ; [3H]DAMGO; ±SEM; ref Lipkowski et al. (1999).
The conditions of data set [2]: after i.c.v. and i.t. administration; ref Lipkowski et al. 1987; Horan et al. 1993.
The conditions of data set [3]: ref Horan et al. 1993; Yamazaki et al. 2001.
The target of a further data set is human δ-opioid receptor (Homo sapiens, UniProt P41143). The conditions noted are these: read-out: Binding Kiδ; [3H]DPDPE; ±SEM; ref Lipkowski et al. (1999).
In data set [4] the target is Mouse vas deferens (δ-opioid receptors). The conditions noted are these: read-out: Functional bioactivity MVD (IC50); ±SEM; ref Lipkowski et al. (1999).

human δ-opioid receptor, sequence (P41143 whole entry): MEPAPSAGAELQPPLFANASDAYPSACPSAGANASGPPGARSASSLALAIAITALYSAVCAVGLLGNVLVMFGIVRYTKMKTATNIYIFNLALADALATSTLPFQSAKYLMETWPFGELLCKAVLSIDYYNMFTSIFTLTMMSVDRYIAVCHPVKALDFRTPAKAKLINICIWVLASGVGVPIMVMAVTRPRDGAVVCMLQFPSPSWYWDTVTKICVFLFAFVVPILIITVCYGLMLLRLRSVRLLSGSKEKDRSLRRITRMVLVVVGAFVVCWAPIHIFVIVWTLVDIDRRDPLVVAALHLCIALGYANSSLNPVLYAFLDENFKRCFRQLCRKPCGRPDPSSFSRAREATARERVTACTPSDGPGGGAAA
rat μ-opioid receptor, sequence (P33535 whole entry): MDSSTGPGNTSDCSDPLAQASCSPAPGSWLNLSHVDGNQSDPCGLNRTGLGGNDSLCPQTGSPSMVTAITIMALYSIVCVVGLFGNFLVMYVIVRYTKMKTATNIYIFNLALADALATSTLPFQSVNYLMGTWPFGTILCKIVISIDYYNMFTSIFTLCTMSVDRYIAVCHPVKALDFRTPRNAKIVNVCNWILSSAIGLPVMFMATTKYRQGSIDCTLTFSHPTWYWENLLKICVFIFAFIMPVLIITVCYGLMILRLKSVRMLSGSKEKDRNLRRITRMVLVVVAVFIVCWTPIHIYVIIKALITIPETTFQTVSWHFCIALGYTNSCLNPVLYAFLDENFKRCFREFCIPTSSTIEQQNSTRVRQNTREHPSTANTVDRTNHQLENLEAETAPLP

As for “Tyr-D-Ala-Gly-Phe-NH-NH\-Phe\-Gly\-D-Ala\-Tyr [Bph]”, in data set [1], the “affinity for both δ- and μ-receptors” value was “highly affinity for both δ- and μ-receptors”. In addition, the Ki at rat μ-opioid receptor is 1.4 ± 0.2 nM; on human δ-opioid receptor, 2.6 ± 0.4 nM. The “potency compared with morphine” value in data set [2] is recorded as “significantly higher than morphine”. The “physical dependence compared with morphine” value in data set [3] is listed as “less physical dependence than morphine”. For the same substance, the IC50 in data set [4] was 27 ± 1.5 nM.
